Where “and” joins values, the source holds several entries; their conditions need not be identical. Equal values may be shown once. Entries after “also recorded” stand apart in the source; their conditions may differ.

The text below walks through data of US7993884B2, “Beta-xylosidase for conversion of plant cell wall carbohydrates to simple sugars” (The United States of America as represented by the …, priority 2006, dated 2011).

The target of data set [1] is T1, SXA (Selenomonas ruminantium, UniProt O52575). Description: SXA-catalyzed hydrolysis of 4NP-glycoside substrates, initial rates (Methods A and B).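 For all read-outs here: initial rates from 4-nitrophenol release, tracked by absorbance over roughly 0.3 min and converted using product-minus-substrate extinction differences, in 1 mL mixtures started by enzyme addition.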 The settings on record: for Km / kcat Rel. to η/ηo = 1: Exper. 2: MES pH 6.00, Method B. In kind it is biochemical.
In data set [2] the target is T1, SXA. As to the kind of experiment: biochemical. The settings on record: read-out: Km^4NPA, pH 5.3, 25° C.
The target in data set [3] is T1, SXA. The settings on record: pH 5.3 and 25° C., relative to A2.
Data set [4] concerns the target Selenomonas ruminantium GA192 β-D-xylosidase (SXA, parent SEQ ID NO: 2) variant D14A (Pseudoselenomonas ruminantium, UniProt O52575, D14A). As to the kind of experiment: Steady-state kinetics of SXA mutant D14A with 4NP substrates.
The target in data set [5] is Selenomonas ruminantium GA192 β-D-xylosidase (SXA, parent SEQ ID NO: 2) variant E186A (Pseudoselenomonas ruminantium, UniProt O52575, E186A). As to the kind of experiment: Steady-state kinetics of SXA mutant E186A with 4NP substrates.
In data set [6] the target is T2, Selenomonas ruminantium GA192 β-D-xylosidase (SXA), wild type, SEQ ID NO: 2 (Pseudoselenomonas ruminantium, UniProt O52575). Description: Steady-state kinetics of SXA with 4NPX2, A2 and X2-X6 by HPLC (Example 1).
In data set [7] the target is T2, Selenomonas ruminantium GA192 β-D-xylosidase (SXA), wild type, SEQ ID NO: 2. Description: Steady-state kinetics of SXA with 4NP-glycosides (Example 1, Methods A and B).
Data set [8] addresses β-D-xylosidase/α-L-arabinofuranosidase (Selenomonas ruminantium, UniProt O52575). Description: Inhibition of the enzyme by monosaccharides and ethanol (detailed description). The format is biochemical, Selenomonas ruminantium GA192. The conditions noted are these: read-out: Ki.
Substrate in data set [9]: O=[N+]([O-])c1ccc(O[C@@H]2OC[C@@H](O)[C@H](O)[C@H]2O)cc1
Description: purified protein, by the assay type. The conditions noted are these: other: 100 mM succinate-NaOH, pH 5.3, 25° C, Method A.

Substrate in data set [10]: O=[N+]([O-])c1ccc(O[C@@H]2O[C@@H](CO)[C@H](O)[C@H]2O)cc1
As to the kind of experiment: purified protein, by the assay type. The settings on record: other: 100 mM succinate-NaOH, pH 5.3, 25° C, Method A.

Where [11] appears, read: I=0.3 M, 25° C., Eq. 7 (4NPX), Eq. 5 (4NPA).
The mark [12] stands for this setting: 100 mM succinate-NaOH, pH 5.3, 25° C, Method A.

By Km is commonly meant the concentration of substrate that gives half-maximal velocity. By kcat is commonly meant the number of substrate molecules converted per active site and unit of time at saturation. As to `O=[N+]([O-])c1ccc(O[C@@H]2O[C@@H](CO)[C@H](O)[C@H]2O)cc1` [4NPA, 4-nitrophenyl-α-L-arabinofuranoside], the “pH-independent kcat/Km” value on SXA [1] worked out at 5.10±0.07 s^−1 mM^−1. The “Relative Rate” value at SXA [1] (5 mM 4NP glycoside, 100 mM succinate-NaOH, pH 5.3, 25° C., Method A, initial rate relative to 4NPX) came out at 0.101 ± 0.003. At SXA [1] (1/Km versus pH, Eq. 4 (4NPX), Eq. 5 (4NPA)), the “pH-independent 1/Km” value is recorded as 1.60±0.02 mM^−1. Besides, the Km amounted to 745 ± 36 µM at SXA [1] (η/ηo 1.00), 754 ± 101 µM at SXA [1] (η/ηo 6.85 (50% sucrose)), 880 ± 130 µM on SXA [2] (FIG. 22A experiment (D-xylose α:β 6:1)) and 900 ± 13 µM on SXA [2] (FIG. 22B experiment (D-xylose α:β 1:2.5)). The “kcat Rel. to η/ηo = 1” value on SXA [1] (η/ηo 1.00) is 1.00; on SXA [1] (η/ηo 6.85 (50% sucrose)), 0.960 ± 0.040; in [7] (pH 6.00, η/ηo 6.85) it was 0.960 ± 0.040. Besides, on SXA [1] (I=0.3 M, 25° C., Eq. 4), the “pKa of kcat versus pH (single group)” value was 3.6 and 3.64±0.10. For the same molecule, the “pKa1 of kcat/Km versus pH” value at SXA [1] (I=0.3 M, 25° C., Eq. 5) was ~5.0 and 5.06±0.02. Further, the “pKa2 of kcat/Km versus pH” value at SXA [1] (I=0.3 M, 25° C., Eq. 5) is 7.20±0.02. The “pKa1 of 1/Km versus pH” value on SXA [1] (setting [11]) came out at 5.00±0.03. The “pKa2 of 1/Km versus pH” value on SXA [1] (setting [11]) came out at 7.16±0.03. Moreover, the “binding to dianionic SXA (D14^−E186^−)” value at SXA [1] (from pH dependencies) is reported as “weakly, if at all; also recorded: no affinity”. Moreover, on SXA [3], the relative kcat values came out at 34. Further, the kcat is 0.000936 ± 0.000012 s⁻¹ in data set [4] (setting [12]); 0.000239 ± 0.000008 s⁻¹ in [5] (setting [12]); 2.87 ± 0.12 s⁻¹ in data set [7] (100 mM MES-NaOH, pH 6.00, 25° C, Method B, 50% sucrose, η/ηo 6.85); 2.99 ± 0.05 s⁻¹ in [7] (100 mM MES-NaOH, pH 6.00, 25° C, Method B, η/ηo 1.00); 2.68 ± 0.06 s⁻¹ in data set [7] (100 mM succinate-NaOH, pH 5.3, 25° C, Method A, no sucrose). For the same molecule, the “factor by which kcat is degraded vs wild type” value in data set [4] (pH 5.3, 25° C.) is 3000; in [5] (pH 5.3, 25° C.) it was 11000. For the same molecule, the “kcat factor between 4NPA and A2” value in data set [6] (4NPA larger / A2 reduced) is reported as 36 fold. The same molecule returned a relative kcat value in [6] (pH 5.3, 25° C, A2 = 1) of 34. The “affinity of dianionic SXA (D14^−E186^−), higher than that of monoanionic SXA (D14^−E186^H)” value in data set [7] (from pH dependence of 1/Km) is “no affinity”.
The term Ki denotes a dissociation constant, usually derived from enzyme kinetics or from competition with a known ligand. `O=C[C@H](O)[C@@H](O)[C@@H](O)CO` [L-arabinose]: the Ki in [8] amounted to 20 ± 0.5 mM.

B1: Selenomonas ruminantium GA192 β-D-xylosidase (SXA, parent SEQ ID NO: 2) variant E186A (Pseudoselenomonas ruminantium; E186A) (protein)
chain: MNIQNPVLKGFNPDPSIVRAGDDYYIATSTFEWFPGVQIHHSKDLVHWHLVAHPLSTTEFLDMKGNPDSGGIWAPDLSYADGKFWLIYTDVKVVDGMWKDCHNYLTTAEDIKGPWSKPILLNGAGFDASLFHDPSGKKYLVNMYWDQRVYHHNFYGIALQEYSVAEEKLIGKPEIIYKGTDIAYTAGPHLYYINDMYYLMTAEGGTTYQHSETIARSKTIHGPYEIQPDYPLLSAWKEVHNPLQKCGHASLVETQNGQWYLAHLTGRPLPAPAGFPSREREQHAFCPLGRETAIQKIEWQDGWPVVVGGQQGSLEVEAPDLPQQEWAPTYEERDDFDKDTLNINFQTLRIPFSEHLGSLTARPGFLRLYGRESLQSKFTQAHIARRWQSFNFDAGTSVEFSPNSFQQMAGLTCYYNTENWSSIHVTWNEEKGRIIDLVTADNGTFSMPLAGAEIPIPDEVKTVHFKVSVRGRIYQYAYSFDGETFHTLPIELPSWKLSDDYVRGGGFFTGAFVGINAIDITGTALPADFDYFTYKELD
For the molecule B1, the values for the Km in data set [9] and in data set [10] were 1100 ± 50 µM and 1320 ± 110 µM, respectively.

B2: Selenomonas ruminantium GA192 β-D-xylosidase (SXA, parent SEQ ID NO: 2) variant H248A (Pseudoselenomonas ruminantium; H248A) (protein)
chain: MNIQNPVLKGFNPDPSIVRAGDDYYIATSTFEWFPGVQIHHSKDLVHWHLVAHPLSTTEFLDMKGNPDSGGIWAPDLSYADGKFWLIYTDVKVVDGMWKDCHNYLTTAEDIKGPWSKPILLNGAGFDASLFHDPSGKKYLVNMYWDQRVYHHNFYGIALQEYSVAEEKLIGKPEIIYKGTDIAYTEGPHLYYINDMYYLMTAEGGTTYQHSETIARSKTIHGPYEIQPDYPLLSAWKEVHNPLQKCGAASLVETQNGQWYLAHLTGRPLPAPAGFPSREREQHAFCPLGRETAIQKIEWQDGWPVVVGGQQGSLEVEAPDLPQQEWAPTYEERDDFDKDTLNINFQTLRIPFSEHLGSLTARPGFLRLYGRESLQSKFTQAHIARRWQSFNFDAGTSVEFSPNSFQQMAGLTCYYNTENWSSIHVTWNEEKGRIIDLVTADNGTFSMPLAGAEIPIPDEVKTVHFKVSVRGRIYQYAYSFDGETFHTLPIELPSWKLSDDYVRGGGFFTGAFVGINAIDITGTALPADFDYFTYKELD
For B2, in data set [9], the Km worked out at 1050 ± 70 µM.

B3: Selenomonas ruminantium GA192 β-D-xylosidase (SXA, parent SEQ ID NO: 2) variant D14A (Pseudoselenomonas ruminantium; D14A) (protein)
chain: MNIQNPVLKGFNPAPSIVRAGDDYYIATSTFEWFPGVQIHHSKDLVHWHLVAHPLSTTEFLDMKGNPDSGGIWAPDLSYADGKFWLIYTDVKVVDGMWKDCHNYLTTAEDIKGPWSKPILLNGAGFDASLFHDPSGKKYLVNMYWDQRVYHHNFYGIALQEYSVAEEKLIGKPEIIYKGTDIAYTEGPHLYYINDMYYLMTAEGGTTYQHSETIARSKTIHGPYEIQPDYPLLSAWKEVHNPLQKCGHASLVETQNGQWYLAHLTGRPLPAPAGFPSREREQHAFCPLGRETAIQKIEWQDGWPVVVGGQQGSLEVEAPDLPQQEWAPTYEERDDFDKDTLNINFQTLRIPFSEHLGSLTARPGFLRLYGRESLQSKFTQAHIARRWQSFNFDAGTSVEFSPNSFQQMAGLTCYYNTENWSSIHVTWNEEKGRIIDLVTADNGTFSMPLAGAEIPIPDEVKTVHFKVSVRGRIYQYAYSFDGETFHTLPIELPSWKLSDDYVRGGGFFTGAFVGINAIDITGTALPADFDYFTYKELD
Consider B3, for which the values for the Km in [9] and in [10] were 777 ± 36 µM and 771 ± 29 µM, respectively.

B4: Selenomonas ruminantium GA192 β-D-xylosidase (SXA, parent SEQ ID NO: 2) variant R290A (Pseudoselenomonas ruminantium; R290A) (protein)
chain: MNIQNPVLKGFNPDPSIVRAGDDYYIATSTFEWFPGVQIHHSKDLVHWHLVAHPLSTTEFLDMKGNPDSGGIWAPDLSYADGKFWLIYTDVKVVDGMWKDCHNYLTTAEDIKGPWSKPILLNGAGFDASLFHDPSGKKYLVNMYWDQRVYHHNFYGIALQEYSVAEEKLIGKPEIIYKGTDIAYTEGPHLYYINDMYYLMTAEGGTTYQHSETIARSKTIHGPYEIQPDYPLLSAWKEVHNPLQKCGHASLVETQNGQWYLAHLTGRPLPAPAGFPSREREQHAFCPLGAETAIQKIEWQDGWPVVVGGQQGSLEVEAPDLPQQEWAPTYEERDDFDKDTLNINFQTLRIPFSEHLGSLTARPGFLRLYGRESLQSKFTQAHIARRWQSFNFDAGTSVEFSPNSFQQMAGLTCYYNTENWSSIHVTWNEEKGRIIDLVTADNGTFSMPLAGAEIPIPDEVKTVHFKVSVRGRIYQYAYSFDGETFHTLPIELPSWKLSDDYVRGGGFFTGAFVGINAIDITGTALPADFDYFTYKELD
Regarding B4, the Km in data set [9] (not well determined (highest 4NPX 5 mM)) amounted to 50300 ± 8800 µM.
